{
  "source": "ChEMBL document CHEMBL1128438",
  "about": "“A priori prediction of activity for HIV-1 protease inhibitors employing energy minimization in the active site” (J Med Chem, 1995)",
  "key": {"[1]": {"target": "T1, Human immunodeficiency virus type 1 protease (Human immunodeficiency virus 1, UniProt Q72874)", "test": "In vitro inhibition of HIV-1 protease"}, "[2]": {"target": "T1, Human immunodeficiency virus type 1 protease", "test": "Inhibition of HIV-1 protease was determined in vitro"}},
  "data": [
    {"smiles": "CC(C)(C)OC(=O)N[C@@H](Cc1ccccc1)[C@@H](O)C[C@@H](Cc1ccccc1)C(=O)N[C@@]1(C)c2ccccc2C[C@H]1O", "values": [
      {"measurement": "IC50", "setting": "[1]", "value": 212, "unit": "nM"}
    ]},
    {"smiles": "CC(C)(C)OC(=O)CN(Cc1ccccc1)C[C@@H](O)[C@H](Cc1ccccc1)NC(=O)OC(C)(C)C", "values": [
      {"measurement": "IC50", "setting": "[2]", "value": 4680, "unit": "nM"}
    ]},
    {"smiles": "CC(C)[C@H](NC(=O)[C@H](Cc1ccccc1)C[C@H](O)CN1C[C@H]2CCCC[C@H]2C[C@H]1C(=O)NC(C)(C)C)C(=O)Nc1ccc2ccccc2n1", "values": [
      {"measurement": "IC50", "setting": "[2]", "value": 52.8, "unit": "nM"}
    ]},
    {"smiles": "CC(C)(C)OC(=O)N[C@@H](Cc1ccccc1)[C@@H](O)C[C@@H](Cc1ccccc1)C(=O)NCC1CCCCC1", "values": [
      {"measurement": "IC50", "setting": "[1]", "value": 30000, "unit": "nM"}
    ]},
    {"smiles": "CC(C)(C)OC(=O)N[C@@H](Cc1ccc(O)cc1)[C@@H](O)[C@@H]1CCC[C@H]1C(=O)NCc1ccccc1", "values": [
      {"measurement": "IC50", "setting": "[2]", "value": 589, "unit": "nM"}
    ]},
    {"smiles": "COC(=O)[C@@H]1Cc2ccccc2[C@@H]1NC(=O)[C@H](Cc1ccccc1)C[C@H](O)[C@H](Cc1ccccc1)NC(=O)OC(C)(C)C", "values": [
      {"measurement": "IC50", "setting": "[1]", "value": 66.3, "unit": "nM"}
    ]},
    {"smiles": "CC(C)(C)OC(=O)N[C@@H](Cc1ccccc1)[C@@H](O)C[C@@H](Cc1ccccc1)C(=O)N[C@H]1CCCC[C@H]1O", "values": [
      {"measurement": "IC50", "setting": "[1]", "value": 122, "unit": "nM"}
    ]},
    {"smiles": "CC(C)(C)OC(=O)N[C@@H](Cc1ccccc1)[C@@H](O)C[C@@H](CSc1ccccc1)C(=O)N[C@H]1c2ccccc2C[C@H]1O", "values": [
      {"measurement": "IC50", "setting": "[1]", "value": 0.25, "unit": "nM"}
    ]},
    {"smiles": "CC(C)(C)OC(=O)N[C@@H](Cc1ccccc1)[C@@H](O)C[C@@](C)(Cc1ccccc1)C(=O)N[C@H]1c2ccccc2C[C@H]1O", "values": [
      {"measurement": "IC50", "setting": "[1]", "value": 7.7, "unit": "nM"}
    ]},
    {"smiles": "O=C(N[C@H]1c2ccccc2C[C@H]1O)[C@H](Cc1ccccc1)CC(O)C[C@@H](Cc1ccccc1)C(=O)N[C@H]1c2ccccc2C[C@H]1O", "values": [
      {"measurement": "IC50", "setting": "[2]", "value": 0.692, "unit": "nM"}
    ]},
    {"smiles": "CC(C)(C)NC(=O)[C@@H]1C[C@@H]2CCCC[C@@H]2CN1CC(O)[C@H](Cc1ccccc1)NC(=O)OC(C)(C)C", "note": "(stereo not given in full)", "values": [
      {"measurement": "IC50", "setting": "[2]", "value": 3020, "unit": "nM"}
    ]},
    {"smiles": "CC(C)(C)OC(=O)N[C@@H](Cc1ccccc1)[C@@H](O)C[C@@H](Cc1ccccc1)C(=O)N[C@@H]1c2ccccc2OC[C@@H]1O", "values": [
      {"measurement": "IC50", "setting": "[1]", "value": 40.5, "unit": "nM"}
    ]},
    {"smiles": "CC(C)(C)OC(=O)N[C@@H](Cc1ccccc1)[C@@H](O)CCC(=O)N[C@H]1c2ccccc2C[C@H]1O", "values": [
      {"measurement": "IC50", "setting": "[1]", "value": 2930, "unit": "nM"}
    ]},
    {"smiles": "CC(C)(C)OC(=O)N[C@@H](Cc1ccccc1)[C@@H](O)C[C@@H](Cc1ccccc1)C(=O)N[C@H]1c2ccccc2OC[C@H]1O", "values": [
      {"measurement": "IC50", "setting": "[1]", "value": 0.18, "unit": "nM"}
    ]},
    {"smiles": "CC(C)(C)OC(=O)N[C@@H](Cc1ccccc1)[C@@H](O)C[C@]1(Cc2ccccc2)CCCN([C@H]2c3ccccc3C[C@H]2O)C1=O", "values": [
      {"measurement": "IC50", "setting": "[2]", "value": 1270, "unit": "nM"}
    ]},
    {"smiles": "CC(C)[C@H](NC(=O)[C@H](Cc1ccccc1)C[C@H](O)[C@H](Cc1ccccc1)NC(=O)OC(C)(C)C)C(=O)O", "values": [
      {"measurement": "IC50", "setting": "[1]", "value": 161, "unit": "nM"}
    ]},
    {"smiles": "CC(C)(C)OC(=O)N[C@@H](Cc1ccccc1)[C@@H](O)C[C@@H](Cc1ccccc1)C(=O)N[C@H](CO)c1ccccc1", "values": [
      {"measurement": "IC50", "setting": "[1]", "value": 38.6, "unit": "nM"}
    ]},
    {"smiles": "CC(C)(C)OC(=O)N[C@@H](Cc1ccccc1)[C@@H](O)C[C@@H](Cc1ccccc1)C(=O)N[C@H](CO)Cc1ccccc1", "values": [
      {"measurement": "IC50", "setting": "[1]", "value": 690, "unit": "nM"}
    ]},
    {"smiles": "CC(C)(C)OC(=O)N[C@@H](Cc1ccccc1)[C@@H](O)C[C@@H](CC(=O)c1ccccc1)C(=O)N[C@H]1c2ccccc2C[C@H]1O", "values": [
      {"measurement": "IC50", "setting": "[1]", "value": 5.42, "unit": "nM"}
    ]},
    {"smiles": "CC(C)(C)OC(=O)N[C@@H](Cc1ccccc1)[C@@H](O)C[C@@H](Cc1ccccc1)C(=O)NCc1ccccc1", "values": [
      {"measurement": "IC50", "setting": "[1]", "value": 114, "unit": "nM"}
    ]},
    {"smiles": "CC(C)(C)OC(=O)N[C@@H](Cc1ccccc1)[C@@H](O)C[C@@H](Cc1ccccc1)C(=O)N[C@H]1c2ccccc2C[C@H]1O", "values": [
      {"measurement": "IC50", "setting": "[1]", "value": 0.25, "unit": "nM"}
    ]},
    {"smiles": "CC(C)(C)OC(=O)N[C@@H](Cc1ccccc1)[C@@H](O)C[C@@H](Cc1ccc(C(C)(C)C)cc1)C(=O)N[C@H]1c2ccccc2C[C@H]1O", "values": [
      {"measurement": "IC50", "setting": "[1]", "value": 0.17, "unit": "nM"}
    ]},
    {"smiles": "CC(C)(C)OC(=O)N[C@@H](Cc1ccccc1)[C@@H](O)CC(=O)NC1c2ccccc2C[C@H]1O", "note": "(stereo not given in full)", "values": [
      {"measurement": "IC50", "setting": "[2]", "value": 568, "unit": "nM"}
    ]},
    {"smiles": "C=CC[C@H](C[C@H](O)[C@H](Cc1ccccc1)NC(=O)OC(C)(C)C)C(=O)N[C@H]1c2ccccc2C[C@H]1O", "values": [
      {"measurement": "IC50", "setting": "[1]", "value": 27.5, "unit": "nM"}
    ]},
    {"smiles": "CC(C)(C)OC(=O)N[C@@H](Cc1ccccc1)[C@@H](O)/C=C(/Cc1ccccc1)C(=O)N[C@H]1c2ccccc2C[C@H]1O", "values": [
      {"measurement": "IC50", "setting": "[2]", "value": 1.29, "unit": "nM"}
    ]},
    {"smiles": "CC(C)(C)NC(=O)[C@@H]1C[C@@H]2CCCC[C@@H]2CN1C[C@@H](O)C[C@@H](Cc1ccccc1)C(=O)N[C@H]1c2ccccc2C[C@H]1O", "values": [
      {"measurement": "IC50", "setting": "[2]", "value": 7.59, "unit": "nM"}
    ]},
    {"smiles": "CC(C)(C)OC(=O)N[C@@H](Cc1ccccc1)[C@@H](O)C[C@@H](CCCc1ccccc1)C(=O)N[C@H]1c2ccccc2[C@@H](O)[C@H]1O", "values": [
      {"measurement": "IC50", "setting": "[1]", "value": 0.19, "unit": "nM"}
    ]},
    {"smiles": "CC(C)(C)NC(=O)[C@@H]1C[C@@H]2CCCC[C@@H]2CN1CC(O)CN1C[C@H]2CCCC[C@H]2C[C@H]1C(=O)NC(C)(C)C", "values": [
      {"measurement": "IC50", "setting": "[2]", "value": 6760, "unit": "nM"}
    ]},
    {"smiles": "C[C@@H](NC(=O)[C@H](Cc1ccccc1)C[C@H](O)[C@H](Cc1ccccc1)NC(=O)OC(C)(C)C)C1CCCCC1", "values": [
      {"measurement": "IC50", "setting": "[1]", "value": 146, "unit": "nM"}
    ]},
    {"smiles": "CC(C)(C)OC(=O)N[C@@H](Cc1ccccc1)[C@@H](O)C[C@@H](Cc1ccccc1)C(=O)N[C@@H]1CCc2ccccc21", "values": [
      {"measurement": "IC50", "setting": "[1]", "value": 34.2, "unit": "nM"}
    ]},
    {"smiles": "CC(C)(C)OC(=O)N[C@@H](Cc1ccccc1)[C@@H](O)C[C@@H](Cc1ccccc1)C(=O)N[C@H]1c2ccccc2CC[C@H]1O", "values": [
      {"measurement": "IC50", "setting": "[1]", "value": 0.7, "unit": "nM"}
    ]},
    {"smiles": "CC(C)(C)OC(=O)N[C@@H](Cc1ccccc1)[C@@H](O)C[C@@H](Cc1ccncc1)C(=O)N[C@H]1c2ccccc2C[C@H]1O", "values": [
      {"measurement": "IC50", "setting": "[1]", "value": 0.53, "unit": "nM"}
    ]},
    {"smiles": "CC(C)(C)OC(=O)N[C@@H](Cc1ccccc1)[C@@H](O)C[C@@H](Cc1ccccc1)C(=O)N[C@H]1C=CC[C@H]1O", "values": [
      {"measurement": "IC50", "setting": "[1]", "value": 9.53, "unit": "nM"}
    ]},
    {"smiles": "CC(C)(C)OC(=O)N[C@@H](Cc1ccccc1)[C@H](O)CN[C@@H](Cc1ccccc1)C(=O)N[C@H]1c2ccccc2C[C@H]1O", "values": [
      {"measurement": "IC50", "setting": "[2]", "value": 229, "unit": "nM"}
    ]},
    {"smiles": "CC(C)(C)OC(=O)N[C@@H](Cc1ccccc1)[C@@H](O)[C@H](O)[C@H](Cc1ccccc1)NC(=O)OC(C)(C)C", "values": [
      {"measurement": "IC50", "setting": "[2]", "value": 1370, "unit": "nM"}
    ]}
  ]
}
